“And” between values parts separate entries of the source, which are not always exact repeats. Identical values can stand only once. Like-named read-outs stand apart in the source and are kept apart here.
Tests used:
[1] = test system: Amaranthus rudis (AMATA), tall water hemp; experiment: Postemergence herbicide evaluation, growth of Amaranthus rudis (AMATA); type: in vivo; conditions: for Ave. AMATA, percent reduction in plant size relative to the untreated control: 21 DAA; for pest or weed control at 280 g/ha / pest or weed control at 560 g/ha: Amaranthus tuberculatus, post-emergence, percent reduction in plant size relative to untreated control, read-out: Ave. AMATA
[2] = test system: Ambrosia artemisiifolia (AMBEL), common ragweed; experiment: Postemergence herbicide evaluation, growth of Ambrosia artemisiifolia (AMBEL); type: in vivo; conditions: for AVE. AMBEL, percent reduction in plant size relative to the untreated control: 21 DAA; for pest or weed control at 280 g/ha / pest or weed control at 560 g/ha: Ambrosia artemisiifolia, post-emergence, percent reduction in plant size relative to untreated control, read-out: AVE. AMBEL
[3] = test system: Abutilon theophrasti (ABUTH), velvetleaf; experiment: Postemergence herbicide evaluation, growth of Abutilon theophrasti (ABUTH); type: in vivo; conditions: for AVE. ABUTH, percent reduction in plant size relative to the untreated control: 21 DAA; for pest or weed control at 280 g/ha / pest or weed control at 560 g/ha: Abutilon theophrasti, post-emergence, percent reduction in plant size relative to untreated control, read-out: AVE. ABUTH
[4] = test system: Chenopodium album (CHEAL), common lambsquarters; experiment: Postemergence herbicide evaluation, growth of Chenopodium album (CHEAL); type: in vivo; conditions: for Ave. CHEAL, percent reduction in plant size relative to the untreated control: 21 DAA; for pest or weed control at 280 g/ha / pest or weed control at 560 g/ha: Chenopodium album, post-emergence, percent reduction in plant size relative to untreated control, read-out: Ave. CHEAL
[5] = test system: glyphosate resistant Conyza canadensis (L.) (ERICA), horseweed; experiment: Postemergence herbicide evaluation, growth of Conyza canadensis (ERICA); type: in vivo; conditions: for Ave. ERICA, percent reduction in plant size relative to the untreated control: 21 DAA; for pest or weed control at 280 g/ha / pest or weed control at 560 g/ha: Erigeron canadensis, post-emergence, percent reduction in plant size relative to untreated control, read-out: Ave. ERICA
[6] = Volatility of compounds measured by thermogravimetric analysis (TGA); type: physicochemical
[7] = test system: weeds (ABUTH, AMATA, AMBEL, CHEAL, ERICA); experiment: Postemergence herbicide evaluation, overall average % weed control across ABUTH, AMATA, AMBEL, CHEAL, ERICA; type: in vivo; conditions: post-emergence, average over the five weeds, read-out: Overall Ave % Weed Control; for pest or weed control at 280 g/ha: 280 g ae/ha; for pest or weed control at 560 g/ha: 560 g ae/ha
[8] = test system: ABUTH, AMATA, AMBEL, CHEAL, ERICA weeds; experiment: as above; type: in vivo; conditions: 21 DAA
Source text: For example, the pesticidal activity may include herbicidal activity.

Corn (ZEAMX) = experiment: Greenhouse post-emergence mixture trials, percent visual control; type: in vivo; conditions: Trial Bridge 2, ZEAMX, 21 DAA
[9] = test system: Common Lambsquarters (CHEAL); experiment: as above; type: in vivo; conditions: CHEAL, 21 DAA
Velvetleaf (ABUTH) = experiment: as above; type: in vivo; conditions: Trial Bridge 2, ABUTH, 21 DAA, compound 0 g ae/ha
Tall Waterhemp (AMATA) = experiment: as above; type: in vivo; conditions: Trial Bridge 2, 21 DAA
Horseweed (ERICA) = experiment: as above; type: in vivo; conditions: 21 DAA
[10] = Trifludimoxazin 12.5 g ai or ae/ha alone (B2 rate 0)
[11] = Trifludimoxazin 25 g ai or ae/ha alone (B2 rate 0)
[12] = Trifludimoxazin 50 g ai or ae/ha alone (B2 rate 0)
[13] = Trial Bridge 2, Trifludimoxazin 25 g ai or ae/ha alone (B2 rate 0)
[14] = Trial Bridge 2, Trifludimoxazin 50 g ai or ae/ha alone (B2 rate 0)

With `N/C(Cc1ccccc1)=N\OC(=O)COc1ccc(Cl)cc1Cl` [Compound A17, N′-(2-(2,4-Dichlorophenoxy)acetoxy)-2-phenylacetimidamide] the “Ave. AMATA, percent reduction in plant size relative to the untreated control” value ([1]; 280 g ae/ha) was 83%, the “Ave. AMATA, percent reduction in plant size relative to the untreated control” value ([1]; 560 g ae/ha) was 89% and the pest or weed control at 280 g/ha ([1]; 168 h, 280 g ae/ha, 7 DAA) was 73%. For the same compound, the pest or weed control at 560 g/ha ([1]; 168 h, 560 g ae/ha, 7 DAA) was 70%, the pest or weed control at 280 g/ha ([1]; 336 h, 280 g ae/ha, 14 DAA) was 78% and the pest or weed control at 560 g/ha ([1]; 336 h, 560 g ae/ha, 14 DAA) was 80%. The “AVE. AMBEL, percent reduction in plant size relative to the untreated control” value ([2]; 280 g ae/ha) was 92%, the “AVE. AMBEL, percent reduction in plant size relative to the untreated control” value ([2]; 560 g ae/ha) was 99% and the pest or weed control at 280 g/ha ([2]; 168 h, 280 g ae/ha, 7 DAA) was 65%. It also gave a pest or weed control at 560 g/ha ([2]; 168 h, 560 g ae/ha, 7 DAA) of 80%, a pest or weed control at 280 g/ha ([2]; 336 h, 280 g ae/ha, 14 DAA) of 86% and a pest or weed control at 560 g/ha ([2]; 336 h, 560 g ae/ha, 14 DAA) of 96%. For the same compound, the “AVE. ABUTH, percent reduction in plant size relative to the untreated control” value ([3]; 280 g ae/ha) was 65%, the “AVE. ABUTH, percent reduction in plant size relative to the untreated control” value ([3]; 560 g ae/ha) was 83% and the pest or weed control at 280 g/ha ([3]; 168 h, 280 g ae/ha, 7 DAA) was 48%. The pest or weed control at 560 g/ha ([3]; 168 h, 560 g ae/ha, 7 DAA) was 68%, the pest or weed control at 280 g/ha ([3]; 336 h, 280 g ae/ha, 14 DAA) was 65% and the pest or weed control at 560 g/ha ([3]; 336 h, 560 g ae/ha, 14 DAA) was 80%. The “Ave. CHEAL, percent reduction in plant size relative to the untreated control” value ([4]; 280 g ae/ha) was 85%, the “Ave. CHEAL, percent reduction in plant size relative to the untreated control” value ([4]; 560 g ae/ha) was 90% and the pest or weed control at 280 g/ha ([4]; 168 h, 280 g ae/ha, 7 DAA) was 70%. It also gave a pest or weed control at 560 g/ha ([4]; 168 h, 560 g ae/ha, 7 DAA) of 68%, a pest or weed control at 280 g/ha ([4]; 336 h, 280 g ae/ha, 14 DAA) of 78% and a pest or weed control at 560 g/ha ([4]; 336 h, 560 g ae/ha, 14 DAA) of 85%. The “Ave. ERICA, percent reduction in plant size relative to the untreated control” value ([5]; 280 g ae/ha) was 97%, the “Ave. ERICA, percent reduction in plant size relative to the untreated control” value ([5]; 560 g ae/ha) was 94% and the pest or weed control at 280 g/ha ([5]; 168 h, 280 g ae/ha, 7 DAA) was 65%. For the same compound, the pest or weed control at 560 g/ha ([5]; 168 h, 560 g ae/ha, 7 DAA) was 65%, the pest or weed control at 280 g/ha ([5]; 336 h, 280 g ae/ha, 14 DAA) was 85% and the pest or weed control at 560 g/ha ([5]; 336 h, 560 g ae/ha, 14 DAA) was 83%. The “TGA Data (rate of weight loss, volatility)” value [6] was 4.1 µg/min, the pest or weed control at 280 g/ha ([7]; 168 h, 7 DAA) was 64% and the pest or weed control at 560 g/ha ([7]; 168 h, 7 DAA) was 70%. For the same compound, the pest or weed control at 280 g/ha ([7]; 336 h, 14 DAA) was 78%, the pest or weed control at 560 g/ha ([7]; 336 h, 14 DAA) was 85% and the “Overall Ave % Weed Control” value ([8]; 280 g ae/ha) was 84%. The “Overall Ave % Weed Control” value ([8]; 560 g ae/ha) was 91%.
For `C#CCN1C(=O)C(F)(F)Oc2cc(F)c(-n3c(=O)n(C)c(=S)n(C)c3=O)cc21` [Trifludimoxazin, trifludimoxazin], the “% Control” value (Corn (ZEAMX); [10]) was 5% and 10%, the “% Control” value (Corn (ZEAMX); [11]) was 15% and 5% and 10% and the “% Control” value (Corn (ZEAMX); [12]) was 15% and 20% and 10%. The “% Control” value ([9]; Trial Bridge 2, Trifludimoxazin 12.5 g ai or ae/ha alone (B2 rate 0)) was 100%, the “% Control” value [9, 13] was 100% and the “% Control” value [9, 14] was 100%. For the same compound, the “% Control” value (Velvetleaf (ABUTH); Trifludimoxazin alone 12.5 g ai or ae/ha) was 100%, the “% Control” value (Velvetleaf (ABUTH); Trifludimoxazin alone 25 g ai or ae/ha) was 100% and the “% Control” value (Velvetleaf (ABUTH); Trifludimoxazin alone 50 g ai or ae/ha) was 100%. The “% Control” value (Tall Waterhemp (AMATA); [10]) was 100%, the “% Control” value (Tall Waterhemp (AMATA); [11]) was 100% and the “% Control” value (Tall Waterhemp (AMATA); [12]) was 100%. For the same compound, the “% Control” value (Horseweed (ERICA); [13]) was 25% and 30% and the “% Control” value (Horseweed (ERICA); [14]) was 30% and 25%.

Reference: patent US20260042731A1, “(2,4-DICHLOROPHENOXY)ACETIC ACID ANALOGS” (CORTEVA AGRISCIENCE LLC, priority 2022, published 2026)
